# In publication PMC12022113 (Nature Communications, 2025):
# Entries after “also recorded” stand apart in the source; their conditions may differ.
# Tests used:
# V2R D103A mutant = V2R D103A mutant (Homo sapiens, UniProt P30518, D103A); type: binding
# V2R R104A mutant = V2R R104A mutant (Homo sapiens, UniProt P30518, R104A); type: binding
# V2R K116A mutant = V2R K116A mutant (Homo sapiens, UniProt P30518, K116A); type: binding
# V2R Q119A mutant = V2R Q119A mutant (Homo sapiens, UniProt P30518, Q119A); type: binding
# V2R Q174A mutant = V2R Q174A mutant (Homo sapiens, UniProt P30518, Q174A); type: binding
# V2R E184A mutant = V2R E184A mutant (Homo sapiens, UniProt P30518, E184A); type: binding
# V2R I209A mutant = V2R I209A mutant (Homo sapiens, UniProt P30518, I209A); type: binding
# V2R F287A mutant = V2R F287A mutant (Homo sapiens, UniProt P30518, F287A); type: binding
# V2R Q291A mutant = V2R Q291A mutant (Homo sapiens, UniProt P30518, Q291A); type: binding
# V2R S315A mutant = V2R S315A mutant (Homo sapiens, UniProt P30518, S315A); type: binding
# V2R [1] = conditions: cited from earlier work
# V2R [2] = conditions: cited from earlier work; remark: listed apart in the source
# [3] = in vivo; cited from earlier work
# OTR = conditions: cited from earlier work
# V1aR = conditions: cited from earlier work
compound,measurement,setting,value
"Cc1ccccc1C(=O)Nc1ccc(C(=O)N2CCCC(O)c3cc(Cl)ccc32)c(C)c1 (centres unmarked) [TVP, 7-Chloro-5-hydroxy-1-[2-methyl-4-(2-methylbenzoylamino)benzoyl]-2,3,4,5-tetrahydro-1 H -1-benzazepine]",effect of mutation (loss or gain vs WT),V2R D103A mutant,less than 5 fold
same,effect of mutation (loss or gain vs WT),V2R R104A mutant,less than 5 fold
same,effect of mutation on affinity,V2R R104A mutant,very limited effect or were without effect
same,effect of mutation on affinity,V2R K116A mutant,"moderate change in binding affinity; also recorded: less pronounced regarding TVP affinity, but was significant"
same,effect of mutation on affinity,V2R Q119A mutant,significant gain in affinity
same,effect of mutation on affinity,V2R Q174A mutant,significant decrease in TVP affinity
same,effect of mutation (loss or gain vs WT),V2R E184A mutant,less than 5 fold
same,effect of mutation on affinity,V2R E184A mutant,very limited effect or were without effect
same,effect of mutation (loss or gain vs WT),V2R I209A mutant,less than 5 fold
same,effect of mutation on affinity,V2R I209A mutant,very limited effect or were without effect
same,effect of mutation on affinity,V2R F287A mutant,moderate change in binding affinity
same,effect of mutation (loss or gain vs WT),V2R Q291A mutant,less than 5 fold
same,effect of mutation on affinity,V2R Q291A mutant,moderate change in binding affinity
same,effect of mutation (loss or gain vs WT),V2R S315A mutant,less than 5 fold
same,effect of mutation on affinity,V2R S315A mutant,very limited effect or were without effect
same,affinity for V2R,V2R [1],high affinity
same,efficacy toward the Gs/cAMP pathway,V2R [2],inverse agonist
same,inhibition of V2R-dependent signaling pathways,V2R [2],inhibit V2R-dependent signaling pathways
same,liver injury,[3],serious and potentially fatal liver injury
same,urine volume,[3],increasing the amount of urine volume
CC[C@H](C)[C@@H]1C(=O)N[C@H](C2Cc3ccccc3C2)C(=O)N1[C@@H](C(=O)N1CCOCC1)c1coc(C)n1 [Retosiban],OTR antagonism,OTR,potent OTR-selective non-peptide antagonist
Cc1nc2c([nH]1)-c1ccccc1N(C(=O)c1ccc(NC(=O)c3ccccc3-c3ccccc3)cc1)CC2 [Conivaptan],selectivity to V2R,V2R [1],not selective to V2R
same,affinity for V1aR,V1aR,high affinity
